Measurements: patent publication US4224325A, “3-(1-Pyrazolyl)-pyridazine derivatives and hypotensive compositions thereof” (Richter Gedeon Vegyeszeti Gyar Rt., priority 1977, dated 1980)
pIC50: −log10 of the molar value. Like-named read-outs stand apart in the source and are kept apart here.

Assays:
[1] = molecular target: T1, prostaglandin dehydrogenase (PGDH) (Sus scrofa, UniProt A0ACM8QJV0); assay: Prostaglandin dehydrogenase (PGDH) inhibiting action, method of Marrazzi and Matschinsky, PGDH preparation from pig lung; format: biochemical
T1 construct: on a PGDH preparation from pig lung; from tissue; host or cells: pig lung
T1 sequence (A0ACM8QJV0 1-266): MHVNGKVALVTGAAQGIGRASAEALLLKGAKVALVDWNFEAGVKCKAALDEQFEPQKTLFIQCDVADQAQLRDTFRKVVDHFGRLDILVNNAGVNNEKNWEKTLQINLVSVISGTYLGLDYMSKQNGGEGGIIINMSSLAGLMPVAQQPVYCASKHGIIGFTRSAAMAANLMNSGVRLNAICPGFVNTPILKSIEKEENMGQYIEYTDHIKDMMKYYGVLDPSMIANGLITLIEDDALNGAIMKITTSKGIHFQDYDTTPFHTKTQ
Excerpt: (§1) The I50%, i.e. the index of inhibition, is defined as the concentration of the substance inhibiting to 50% the function of the corresponding enzyme.

[2] = molecular target: prostaglandin-A isomerase (PGAI); assay: Prostaglandin-A isomerase (PGAI) inhibiting action, method of Jones et al., PGAI preparation from blood plasma of pigs; format: biochemical; conditions: concentration inhibiting enzyme function to 50%; PGAI from pig blood plasma; read-out: I50% inhibiting level in final concentration, PGAI
Excerpt: as §1

in vivo = conditions: mouse, po
cats = assay: Hypotensive action in narcotized cats (decrease in blood pressure); format: in vivo; conditions: cats narcotized i.p. by 30 mg/kg Pentobarbital
[3] = test system: prostaglandin dehydrogenase and prostaglandin-A isomerase; assay: Inhibition of enzymes regulating prostaglandin catabolism (prostaglandin dehydrogenase and prostaglandin-A isomerase), in words; format: biochemical
Protocol: The prostaglandin-A isomerase (PGAI) inhibiting action of the compounds according to the invention was measured by the method of Jones et al. (Biochim. Biophys. Acta 280, 558, 1972) on a PGAI preparation from the blood plasma of pigs, whereas the prostaglandin dehydrogenase (PGDH) inhibiting action was determined by the method of Marrazzi and Matschinsky (Prostaglandins 1, 373, 1972); on a PGDH preparation from pig lung.

mice = conditions: against Hydralazine
[4] = Tachycardia (inability to cause, compared with Hydralazine); format: in vivo; conditions: against Hydralazine
[5] = test system: spontaneously hypertensive (Wistar-Okamoto) rats; assay: Hypotensive action in spontaneously hypertensive rats, systolic blood pressure in caudal artery by indirect method after oral treatment; format: in vivo; conditions: dose equal to Hydralazine
Protocol: The hypotensive action of substance 44 was studied also in spontaneously hypertensive (Wistar-Okamoto(rats)Arzneim.- forsch. 6, 222, 1956): the systolic blood pressure was measured in the caudal artery by an indirect method, after oral treatment.

[6] = concentration inhibiting enzyme function to 50%, PGDH from pig lung, read-out: I50% inhibiting level in final concentration, PGDH

| Compound | pIC50 [2] | LD50 (in vivo) [mg/kg] | Decrease in blood pressure by 1 mg/kg (cats) [Hgmm] | also measured |
| --- | --- | --- | --- | --- |
| C[C@]12CC[C@@H]3c4ccc(O)cc4CC[C@H]3[C@@H]1CCC2=O [Estrone, reference compound] |  |  |  | pIC50 [1]: 5.00 |
| Cc1cc(C)n(-c2ccc(NCc3ccccc3)nn2)n1 [Example 17, 3-Benzylamino-6-(3,5-dimethyl-1-pyrazolyl)-pyridazine] |  |  |  | pIC50 [1, 6]: 3.70 |
| Cc1cc(C)n(-c2ccc(N(C)C)nn2)n1 [Example 19, 3-Dimethylamino-6-(3,5-dimethyl-1-pyrizolyl)-pyridazine] | 3.89 |  |  |  |
| c1ccc(CNc2ccc(-n3nc(-c4ccccc4)cc3-c3ccccc3)nn2)cc1 [Example 21, 3-Benzylamino-6-(3,5-diphenyl-1-pyrazolyl)-pyridazine] | 4.70 |  |  |  |
| Cc1cc(C)n(-c2ccc(NN)nn2)n1 [Example 25, 3-hydrazino-6-(3,5-dimethyl-1-pyrazolyl)-pyridazine] | 4.60 | 200 | -30 |  |
| NNc1ccc(-n2nc(C3CC3)cc2C2CC2)nn1 [Example 26, 3-Hydrazino-6-(3,5-dicyclopropyl-1-pyrazolyl)-pyridazine] |  | 100 | -40 |  |
| CCc1cc(CC)n(-c2ccc(NN)nn2)n1 [Example 29, 3-Hydrazino-6-(3,5-diethyl-1-pyrazolyl)-pridazine] |  | ~150 | -40 |  |
| Cc1nn(-c2ccc(NN)nn2)c(C)c1C [Example 31, 3-Hydrazino-6-(3,4,5-trimethyl-1-pyrazolyl)-pridazine] | 4.22 | 100 | -15 |  |
| Cc1nn(-c2ccc(NN)nn2)c(C)c1Cl [Example 34, 3-Hydrazino-6-(3,5-dimethyl-4-chloro-1-pyrazolyl)-pyridazine] |  | > 200 | -20 | pIC50 [1, 6]: 3.96 |
| Cc1nn(-c2ccc(NN)nn2)c(C)c1Br [Example 35, 3-Hydrazini-6-(3,5-dimethyl-4-bromo-1-pyrazolyl)-pyridazine] | 4.10 |  |  |  |
| NNc1ccc(-n2nccc2N)nn1 [Example 40, 3-Hydrazino-6-(5-amino-1-pyrazolyl)-pyridazine] |  | 200 | -30 |  |
| Cc1nn(-c2ccc(NN)nn2)c(C)c1N [Example 44, 3-hydrazino-6-(3,5-dimethyl-4-amino-1-pyrazolyl)-pyridazine] | 4.15 | > 200 | -40 | Prostaglandin catabolism inhibiting effect [3]: prostaglandin catabolism inhibiting effect; Toxicity compared with Hydralazine (mice): extraordinarily favorable toxicity; Tachycardia [4]: inability to cause tachycardia; Duration of effect compared with Hydralazine at equal dose [5]: same duration of effect; Effectivity (systolic blood pressure) compared with Hydralazine at equal dose [5]: same effectivity |
| NNc1ccc(-n2cc(N)cn2)nn1 [Example 45, 3-Hydrazino-6-(4-amino-1-pyrazolyl)-pyridazine] |  | 200 | -30 |  |
| CCc1nn(-c2ccc(NN)nn2)c(CC)c1N [Example 46, 3-Hydrazino-6-(3,5-diethyl-4-amino-1-pyrazolyl)-pyridazine] |  | 200 | -50 |  |
| Cc1nn(-c2ccc(NNC(=O)OC(C)(C)C)nn2)c(C)c1N [Example 56, 3-(2-tert-butoxycarbonyl-1-hydrazino)-6-(3,5-dimethyl-4-amino-1-pyrazolyl)-pyridazine] |  | 200 | -35 |  |
| Cl.NNc1nncc2ccccc12 [Hydralazine, 1-hydrazinophthalazine hydrochloride, reference compound] | 4.05 | 200 | -40 |  |
